Experiment [1] has as its system rheumatoid synovial cells. The settings on record: rheumatoid synovial cells upon treatment; cited from earlier work.
A further experiment deals with Col4a3-/- mice. The conditions noted are these: cited from earlier work.
In experiment [2] the target is T1, mouse IL11 receptor IL11RA1 (mouse, UniProt Q64385 24-432).
T1 construct: whole, on cells; Endogenous protein detected in tissue sections; also called IL-11Rα
T1 sequence (looked up): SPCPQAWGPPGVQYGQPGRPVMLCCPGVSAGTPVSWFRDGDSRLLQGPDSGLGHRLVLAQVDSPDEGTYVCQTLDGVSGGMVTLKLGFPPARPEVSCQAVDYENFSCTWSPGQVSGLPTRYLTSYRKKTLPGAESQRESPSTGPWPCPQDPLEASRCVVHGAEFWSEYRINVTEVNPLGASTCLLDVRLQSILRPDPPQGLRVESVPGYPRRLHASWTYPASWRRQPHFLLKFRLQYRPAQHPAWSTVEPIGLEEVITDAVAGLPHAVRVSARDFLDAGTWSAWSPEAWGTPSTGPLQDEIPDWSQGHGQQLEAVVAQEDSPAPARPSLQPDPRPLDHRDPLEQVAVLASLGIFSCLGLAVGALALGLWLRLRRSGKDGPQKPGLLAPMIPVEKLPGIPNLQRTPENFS
As to the kind of experiment: immunohistochemistry on mouse kidney sections (wild-type vs Il11ra1-/-). The text has this:
FIGS. 2A to 2E. […] (2A-2C) Renal (2A) II11 RNA and (2B-2C) IL11 protein expression in wildtype and Col4a3^{-/-} mice. (2D) Immunohistochemistry staining of IL11RA with anti-IL11RA (X209) or IgG (11E10) as control on the kidneys of wild-type and II11ra1^{-/-} mice (scale bars, 20 μm). (2E) Comparison of II11ra1 and gp130 expression in mouse kidney cells based on single cell transcriptomic analysis by Park et. al.¹⁶. (2A) Data are shown as box-and-whisker with median (middle line), 25th-75th percentiles (box) and min-max values (whiskers), (2C) data are shown as mean±SD; 2-tailed Student's t-test. FC: fold change.
Kidneys were fixed in 10% neutral-buffered formalin (NBF), paraffinized, cut into 7 μm sections, incubated with primary antibodies overnight and visualized using an ImmPRESS HRP anti-rabbit IgG polymer detection kit (MP-7401, Vector Laboratories) with ImmPACT DAB Peroxidase Substrate (SK-4105, Vector Laboratories). Quantification of WT^+ve cells were performed in a blinded fashion from 4 images (200× field)/kidney (n=3-4 kidneys/group).

[3] abbreviates: treatment of 4-week-old mice, prior to onset of proteinuria and tubulointerstitial fibrosis.

Entries after “also recorded” stand apart in the source; their conditions may differ.

Regarding `COc1ccc2c(c1)c(CC(=O)O)c(C)n2C(=O)c1ccc(Cl)cc1` [indomethacin, reference compound], the “expression of IL-11” value in experiment [1] was “reduction”.
For `CCOC(=O)[C@H](CCc1ccccc1)N[C@@H](C)C(=O)N1[C@H](C(=O)O)C[C@@H]2CCC[C@@H]21` [ramipril], the “effect of delayed treatment” value with Col4a3-/- mice (treatment delayed until after proteinuria was established (6-week-old mice)) was “ineffective; also recorded: no beneficial effect”. Moreover, in the experiment on Col4a3-/- mice (setting [3]), the kidney dysfunction entry is “attenuated” and the lifespan entry is recorded as “prolonged”.

B1: anti-IL11RA antibody X209 (antibody, V domains shown)
VH: QVQLQQPGAELVRPGSSVKLSCKASGYTFTNYWMHWLKQRPVQGLEWIGNIGPSDSKTHYNQKFKDKATLTVDKSSSTAYMQLNSLTSEDSAVYYCARGDYVLFTYWGQGTLVTVSA
VL: DIVLTQSPATLSLSPGERATLSCRASQSISNNLHWYQQKSHEAPRLLIKYASQSISGIPARFSGSGSGTDFTLSFSSLETEDFAVYFCQQSYSWPLTFGQGTKLEIK
notes: also called Enx209; anti-IL11RA (X209, Aldevron)
On to B1, for which, in experiment [2], the binding result was “binds”.

B2: interferon-gamma: interferon-gamma (IFNγ) (protein, UniProt P01579 24-161, looked up)
Interferon gamma: QDPYVKEAENLKKYFNAGHSDVADNGTLFLGILKNWKEESDRKIMQSQIVSFYFKLFKNFKDDQSIQKSVETIKEDMNVKFFNSNKKKRDDFEKLTNYSVTDLNVQRKAIHELIQVMAELSPAAKTGKRKRSQMLFRG
As for B2, the “expression of IL-11” value in experiment [1] is on record as “reduction”.

Values taken from US20230212279A1, “TREATMENT AND PREVENTION OF DISEASE CAUSED BY TYPE IV COLLAGEN DYSFUNCTION” (Singapore Health Services PTE, LTD., priority 2020, published 2023).
